One assay deals with T1, EGFR (L858R T790M C797S) (Homo sapiens, UniProt P00533, C797S/L858R/T790M).
T1 construct: purchased SignalChem E10-122VG
The assay can be described thus: Biochemical EGFR inhibition assay (Caliper mobility shift), EGFR LRTMCS mutant. The conditions noted are these: inhibitory activity against EGFR LRTMCS mutant; apparent IC50; read-out: Ext Enz LRTMCS. Summed up: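 Caliper mobility shift read-out: product and substrate peptides separated by electrophoresis and quantified. Reactions at 25° C. taken to 10–20% peptide phosphorylation, quenched with 35 mM EDTA. Apparent IC50 from percent activity vs log [compound].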

Assay [1] has as its system phosphorylation of EGFR (Tyr1068) in NCI-H1975 cell line that harbors the EGFR L858R T790M mutations. The assay can be described thus: NCI-H1975 pEGFR AlphaLISA assay. The conditions noted are these: 4-5 hours incubation, read-out: Ext pEGFR H1975. The class given is cell-based. Summed up: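 NCI-H1975 cells (EGFR L858R/T790M) seeded overnight, then treated with compound for 4-5 h at 37 °C/5% CO2. After lysis, p-EGFR (Tyr1068) quantified by AlphaLISA SureFire Ultra with acceptor then donor beads; IC50 fitted from percent inhibition versus log concentration.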
(Alpha assays give light when donor and acceptor beads are brought close together.)

[2] abbreviates: Homo sapiens, NCI-H1975, inhibition of phosphorylation of mutant EGFR in NCI-H1975 cells.
[3] abbreviates: inhibition of phosphorylation of mutant EGFR in NCI-H1975 cells.

Where two headings read alike, the source gives them in different places.

Experimental findings from patent publication US12172983B2, “EGFR inhibitors” (Blueprint Medicines Corporation, priority 2019, dated 2024) are described below.

T1 sequence (P00533 25-1210 T790M/C797S/L858R): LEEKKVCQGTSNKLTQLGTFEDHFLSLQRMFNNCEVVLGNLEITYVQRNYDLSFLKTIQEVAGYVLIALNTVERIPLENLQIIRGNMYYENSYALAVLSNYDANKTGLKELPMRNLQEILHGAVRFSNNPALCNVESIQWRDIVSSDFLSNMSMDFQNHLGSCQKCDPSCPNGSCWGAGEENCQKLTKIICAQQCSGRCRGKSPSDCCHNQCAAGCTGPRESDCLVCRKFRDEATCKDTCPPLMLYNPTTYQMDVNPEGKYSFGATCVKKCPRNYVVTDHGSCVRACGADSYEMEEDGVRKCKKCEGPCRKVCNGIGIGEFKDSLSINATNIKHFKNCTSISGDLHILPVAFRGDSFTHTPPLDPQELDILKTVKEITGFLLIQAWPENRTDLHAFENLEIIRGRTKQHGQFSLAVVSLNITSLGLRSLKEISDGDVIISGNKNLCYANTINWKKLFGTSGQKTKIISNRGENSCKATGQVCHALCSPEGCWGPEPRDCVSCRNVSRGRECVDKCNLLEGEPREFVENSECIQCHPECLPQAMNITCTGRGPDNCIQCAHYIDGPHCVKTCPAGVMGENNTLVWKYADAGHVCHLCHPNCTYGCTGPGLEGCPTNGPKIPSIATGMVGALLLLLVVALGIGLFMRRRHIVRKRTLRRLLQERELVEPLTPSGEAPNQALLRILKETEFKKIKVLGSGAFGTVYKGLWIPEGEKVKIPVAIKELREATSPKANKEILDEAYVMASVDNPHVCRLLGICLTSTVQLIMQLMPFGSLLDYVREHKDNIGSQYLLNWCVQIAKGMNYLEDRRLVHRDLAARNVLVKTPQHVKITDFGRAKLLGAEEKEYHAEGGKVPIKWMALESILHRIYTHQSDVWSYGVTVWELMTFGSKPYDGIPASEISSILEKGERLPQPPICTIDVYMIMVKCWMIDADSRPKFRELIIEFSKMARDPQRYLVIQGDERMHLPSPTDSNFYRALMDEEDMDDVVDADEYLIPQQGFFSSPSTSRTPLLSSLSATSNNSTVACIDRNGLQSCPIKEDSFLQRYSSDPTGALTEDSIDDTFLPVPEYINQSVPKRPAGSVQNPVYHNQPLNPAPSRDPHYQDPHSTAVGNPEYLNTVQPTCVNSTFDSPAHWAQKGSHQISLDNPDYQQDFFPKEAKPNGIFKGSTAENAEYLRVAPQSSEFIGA

For the compound `CC(C)c1cnc(N2C[C@H](CS(C)(=O)=O)[C@H]2C)c2cnc(Nc3ccnc(N4CC[C@](C)(O)[C@H](F)C4)n3)cc12` (single isomer, unassigned) [Compound 135], the results for the IC50 (on EGFR (L858R T790M C797S); in assay [1] (setting [2])) were ≤ 0.015 µM and ≤ 0.01 µM, respectively.

Turning to `CC(CF)c1ccc(N2CC(CS(C)(=O)=O)C2)c2cnc(Nc3ccnc(N4CC[C@@H](O)[C@@](C)(F)C4)n3)cc12` (single isomer, unassigned) [Compound 154], the IC50 was ≤ 0.015 µM at EGFR (L858R T790M C797S) and 0.0201 to 0.03 µM in assay [1] (setting [2]).

Regarding `CC(C)c1ccc(N2CC(CS(C)(=O)=O)C2)c2cnc(Nc3ccnc(N4CCC5(CC4)OCCO5)n3)cc12` [Compound 88, N-(2-{1,4-dioxa-8-azaspiro[4.5]decan-8-yl}pyrimidin-4-yl)-8-[3-(methanesulfonylmethyl)azetidin-1-yl]-5-(propan-2-yl)isoquinolin-3-amine], the IC50 was ≤ 0.015 µM on EGFR (L858R T790M C797S) and 0.0201 to 0.03 µM in assay [1] (setting [2]).

With `COCCO[C@H]1CCN(c2nccc(Nc3cc4c(C(C)C)ccc(N5CC(CS(C)(=O)=O)C5)c4cn3)n2)C[C@H]1O` (racemic) [Compound 226, (3R,4S)-1-[4-[[5-isopropyl-8-[3-(methylsulfonylmethyl)azetidin-1-yl]-3-isoquinolyl]amino]pyrimidin-2-yl]-4-(2-methoxyethoxy)piperidin-3-ol and (3S,4R)-1-[4-[[5-isopropyl-8-[3-(methylsulfonylmethyl)azetidin-1-yl]-3-isoquinolyl]amino]pyrimidin-2-yl]-4-(2-methoxyethoxy)piperidin-3-ol], the values for the IC50 (at EGFR (L858R T790M C797S); in assay [1] (setting [2])) were 0.0301 to 0.1 µM and 0.0301 to 0.05 µM, respectively.

With `CC(C)c1cnc(N2C[C@H](CS(C)(=O)=O)[C@H]2C)c2cnc(Nc3ccnc(N4CC[C@H]5COC[C@H]54)n3)cc12` (single isomer, unassigned) [Compound 266, N-{2-[(3aR,6aS)-hexahydro-1H-furo[3,4-b]pyrrol-1-yl]pyrimidin-4-yl}-8-[(2R,3S)-3-(methanesulfonylmethyl)-2-methylazetidin-1-yl]-5-(propan-2-yl)-2,7-naphthyridin-3-amine or N-{2-[(3aS,6aR)-hexahydro-1H-furo[3,4-b]pyrrol-1-yl]pyrimidin-4-yl}-8-[(2R,3S)-3-(methanesulfonylmethyl)-2-methylazetidin-1-yl]-5-(propan-2-yl)-2,7-naphthyridin-3-amine], the IC50 is ≤ 0.015 µM on EGFR (L858R T790M C797S) and ≤ 0.01 µM in assay [1] (setting [2]).

With `CC(C)c1ccc(N2C[C@H](CS(C)(=O)=O)[C@H]2C)c2cnc(Nc3ccnc(N4CC[C@@H](OCCO)[C@@H](F)C4)n3)cc12` [Compound 229, 2-((3S,4R)-3-fluoro-1-(4-(5-isopropyl-8-((2R,3S)-2-methyl-3-(methylsulfonylmethyl)azetidin-1-yl)isoquinolin-3-ylamino)pyrimidin-2-yl)piperidin-4-yloxy)ethanol], the IC50 on EGFR (L858R T790M C797S) was ≤ 0.015 µM; in assay [1] (setting [2]) it was ≤ 0.01 µM.

With `CC(C)c1ccc(N2CC(CS(C)(=O)=O)C2)c2cnc(Nc3ccnc(N4CCCC(O)CC4)n3)cc12` (racemic) [Compound 21, (rac)-1-[4-({8-[3-(methanesulfonylmethyl)azetidin-1-yl]-5-(propan-2-yl)isoquinolin-3-yl}amino)pyrimidin-2-yl]azepan-4-ol], the IC50 fell in the range of 0.0201 to 0.03 µM at EGFR (L858R T790M C797S) and 0.0301 to 0.05 µM in assay [1] (setting [2]).

On to `CC(C)c1ncc(N2C[C@H](CS(C)(=O)=O)[C@H]2C)c2cnc(Nc3ccnc(N4CC[C@H](OCC(C)(C)O)[C@H](F)C4)n3)cc12` [Compound 257, 1-{[(3R,4S)-3-fluoro-1-[4-({8-[(2R,3S)-3-(methanesulfonylmethyl)-2-methylazetidin-1-yl]-5-(propan-2-yl)-2,6-naphthyridin-3-yl}amino)pyrimidin-2-yl]piperidin-4-yl]oxy}-2-methylpropan-2-ol], for which the IC50 on EGFR (L858R T790M C797S) was in the range of 0.0151 to 0.02 µM; in assay [1] (setting [2]) it was 0.0101 to 0.02 µM.

For `[2H]C([2H])([2H])O[C@H]1[C@@H](O)CN(c2nccc(Nc3cc4c(C(C)C)ccc(N5C[C@H](CS(C)(=O)=O)[C@H]5C)c4cn3)n2)CC1(F)F` (single isomer, unassigned) [Compound 314, (3S,4S)-5,5-difluoro-1-(4-((5-isopropyl-8-((2R,3S)-2-methyl-3-((methylsulfonyl)methyl)azetidin-1-yl)isoquinolin-3-yl)amino)pyrimidin-2-yl)-4-(^2H3)methoxypiperidin-3-ol or (3R,4R)-5,5-difluoro-1-(4-((5-isopropyl-8-((2R,3S)-2-methyl-3-((methylsulfonyl)methyl)azetidin-1-yl)isoquinolin-3-yl)amino)pyrimidin-2-yl)-4-(^2H3)methoxypiperidin-3-ol], the IC50 at EGFR (L858R T790M C797S) was 0.0301 to 0.1 µM; in assay [1] (setting [3]), ≤ 0.01 µM.

For `CC(C)c1ccc(N2C[C@H](CS(C)(=O)=O)[C@H]2C)c2cnc(Nc3ccnc(N4CC[C@@H](OCCO)C(F)(F)C4)n3)cc12` (single isomer, unassigned) [Compound 251], the values for the IC50 (at EGFR (L858R T790M C797S); in assay [1] (setting [2])) were 0.0151 to 0.02 µM and ≤ 0.01 µM, respectively.

`CO[C@H]1CCN(c2nccc(Nc3cc4c(C(C)C)ccc(N5C[C@H](CS(C)(=O)=O)[C@H]5C)c4cn3)n2)C[C@H]1C#N` (single isomer, unassigned) [Compound 164, (3S,4S)-1-[4-({8-[(2R,3S)-3-(methanesulfonylmethyl)-2-methylazetidin-1-yl]-5-(propan-2-yl)isoquinolin-3-yl}amino)pyrimidin-2-yl]-4-methoxypiperidine-3-carbonitrile or (3R,4R)-1-[4-({8-[(2R,3S)-3-(methanesulfonylmethyl)-2-methylazetidin-1-yl]-5-(propan-2-yl)isoquinolin-3-yl}amino)pyrimidin-2-yl]-4-methoxypiperidine-3-carbonitrile]: the IC50 at EGFR (L858R T790M C797S) was 0.0151 to 0.02 µM; in assay [1] (setting [3]), ≤ 0.01 µM.

As for `CC(C)c1ccc(N2CC(CS(=O)(=O)C3CNC3)C2)c2cnc(Nc3ccnc(N4CC[C@@H](O)[C@@](C)(F)C4)n3)cc12` (single isomer, unassigned) [Compound 223], the IC50 at EGFR (L858R T790M C797S) was 0.0201 to 0.03 µM; in assay [1] (setting [2]) it was 0.0301 to 0.05 µM.

Take `CC(C)c1ncc(N2C[C@H](CS(C)(=O)=O)[C@H]2C)c2cnc(Nc3ccnc(N4CC[C@H](OC5CC5)[C@H](F)C4)n3)cc12` [Compound 224, N-{2-[(3R,4S)-4-cyclopropoxy-3-fluoropiperidin-1-yl]pyrimidin-4-yl}-8-[(2R,3S)-3-(methanesulfonylmethyl)-2-methylazetidin-1-yl]-5-(propan-2-yl)-2,6-naphthyridin-3-amine]: the IC50 was 0.0151 to 0.02 µM on EGFR (L858R T790M C797S) and ≤ 0.01 µM in assay [1] (setting [2]).

`CO[C@@H]1CCN(c2nccc(Nc3cc4c(C(C)C)ccc(N5CC(CS(C)(=O)=O)C5)c4cn3)n2)C[C@@H]1F` [Compound 64, N-(2-((3S,4R)-3-fluoro-4-methoxypiperidin-1-yl)pyrimidin-4-yl)-5-isopropyl-8-(3-(methylsulfonylmethyl)azetidin-1-yl)isoquinolin-3-amine]: the IC50 on EGFR (L858R T790M C797S) was ≤ 0.015 µM; in assay [1] (setting [2]) it was ≤ 0.01 µM.

Consider `C[C@@H]1[C@@H](CS(C)(=O)=O)CN1c1ccc(F)c2cc(Nc3ccnc(N4C[C@H](F)[C@H](O)C(C)(C)C4)n3)ncc12` (single isomer, unassigned) [Compound 83, (4S,5R)-5-fluoro-1-[4-({5-fluoro-8-[(2R,3S)-3-(methanesulfonylmethyl)-2-methylazetidin-1-yl]isoquinolin-3-yl}amino)pyrimidin-2-yl]-3,3-dimethylpiperidin-4-ol or (4R,5S)-5-fluoro-1-[4-({5-fluoro-8-[(2R,3S)-3-(methanesulfonylmethyl)-2-methylazetidin-1-yl]isoquinolin-3-yl}amino)pyrimidin-2-yl]-3,3-dimethylpiperidin-4-ol], for which the results for the IC50 (at EGFR (L858R T790M C797S); in assay [1] (setting [2])) were ≤ 0.015 µM and ≤ 0.01 µM, respectively.

On to `CO[C@@H]1CN(c2nccc(Nc3cc4c(C(C)C)ccc(N5CC(CS(C)(=O)=O)C5)c4cn3)n2)C[C@H](F)[C@@H]1O` (single isomer, unassigned) [Compound 149, (3S,4R,5R)-3-fluoro-1-[4-({8-[3-(methanesulfonylmethyl)azetidin-1-yl]-5-(propan-2-yl)isoquinolin-3-yl}amino)pyrimidin-2-yl]-5-methoxypiperidin-4-ol or (3R,4S,5S)-3-fluoro-1-[4-({8-[3-(methanesulfonylmethyl)azetidin-1-yl]-5-(propan-2-yl)isoquinolin-3-yl}amino)pyrimidin-2-yl]-5-methoxypiperidin-4-ol], for which the IC50 on EGFR (L858R T790M C797S) was 0.0151 to 0.02 µM; in assay [1] (setting [2]) it was 0.0101 to 0.02 µM.

Turning to `CC(C)c1ccc(N2CC(CS(C)(=O)=O)C2)c2cnc(Nc3ccnc(N4CC[C@](F)([C@@H](C)O)C4)n3)cc12` (single isomer, unassigned) [Compound 58, (1R)-1-[(3R)-3-fluoro-1-[4-({8-[3-(methanesulfonylmethyl)azetidin-1-yl]-5-(propan-2-yl)isoquinolin-3-yl}amino)pyrimidin-2-yl]pyrrolidin-3-yl]ethan-1-ol or (1S)-1-[(3S)-3-fluoro-1-[4-({8-[3-(methanesulfonylmethyl)azetidin-1-yl]-5-(propan-2-yl)isoquinolin-3-yl}amino)pyrimidin-2-yl]pyrrolidin-3-yl]ethan-1-ol], the IC50 at EGFR (L858R T790M C797S) lay in the range of 0.0151 to 0.02 µM; in assay [1] (setting [2]) it was 0.0201 to 0.03 µM.
